Experiment: Transmittance-versus-wavelength curve in chloroform (FIG. 1), judged as a near infrared filter
Type: physicochemical
Conditions: curve 3 of FIG. 1
Excerpt: FIG. 1 is a graph illustrating transmittance to wavelength of a solution in chloroform of the compounds of Examples 1 and 3 and Comparative Example 1, in which carves 1, 2 and 3 are the absorption curves of the compounds of Example 1, Example 3 and Comparative Example i respectively.
In the anthraquinone of present invention, at least one of four anilido benzene rings is substituted by a halogen atom such as chlorine, fluorine and bromine, which preferably is in the p-position. The anthraquinone bearing a halogen atom realizes a wave shape of the light absorption of the absorption curves of these compounds render them very suitable for near infrared rays absorbing filters. That is, the anthraquinone bearing a halogen atom can mostly absorb the light in the wavelength range of 700 to 800 nm and realize the transmittance curve which is steeper slope in vicinity of 800 nm than one of other anthraquinone bearing no halogen atom.
In general, laser beams used for the near infrared rays absorbing filters have a wavelength of 830 nm or more, but the wavelength depends upon use applications. In the examples described following, the most usual wavelength of about 860 nm was used to measure the transmittance of compounds represented by the formula (I), and the estimation was made by comparing absorption wave shapes. […]

| Structure (SMILES) | transmission of the product in a 800-830 wavelength range |
| --- | --- |
| Cc1ccc(Nc2ccc(Nc3ccc(C)cc3)c3c2C(=O)c2c(Nc4ccc(C)cc4)ccc(Nc4ccc(C)cc4)c2C3=O)cc1 [Comparative Example 1, 1,4,5,8-tetrakis(p-methylanilido)anthraquinone, reference compound] | poor |

Experiment: Transmittance at 860 nm of the product dissolved in chloroform
Type: physicochemical
Conditions: 860 nm; chloroform; product/chloroform=4 mg/100 ml
Excerpt: In order to use colorants consisted in such optical filters, fairly high purity is required. However conventional near infrared rays absorbing colorants have low purity and inadequate absorption characteristics and thus can scarecely be used. Particularly in case of a 1,4,5,8-tetraanilidoanthraquinone, the allowable limit of its transmittance in the vicinity of 860 nm is at a level of about 95 to about 96% (a concentration of the dissolved colorant at the time of the transmittance measurement is 4 mg per 100 ml of chloroform). If its transmittance is below this level, the transmission of semiconductor laser beams is hindered noticeably, and therefore it is difficult to use such a colorant as a near infrared rays absorbing filter for measuring equipment and the like where particularly high accuracy is required.
In general, laser beams used for the near infrared rays absorbing filters have a wavelength of 830 nm or more, but the wavelength depends upon use applications. In the examples described following, the most usual wavelength of about 860 nm was used to measure the transmittance of compounds represented by the formula (I), and the estimation was made by comparing absorption wave shapes.
A mixture of 10.87 parts of 99%-purity 1,4,5,8-tetrachloroanthraquinone recrystallized from chlorobenzene, 27.2 parts of p-toluidine, 31.3 parts of p-chloroaniline, 13.4 parts of potasssium acetate, 1.24 parts of copper sulfate and 3.41 parts of benzyl alcohol was heated 130° C. under a nitrogen gas flow and the reaction mixture was then maintained at this temperature for 6.5 hours. Afterward, the reaction mixture was cooled to 70° C. and was then poured into 217 parts of ethanol, followed by filtration, ethanol washing, water washing and drying. The resultant crude product was then subjected to recrystallization from pyridine, thereby obtaining 14.2 parts of desired 1-(p-chloroanilido)-4,5,8-tris(p-methylanilido)anthraquinone (yield=70%) in high purity. By the use of a high-speed liquid chromatography (made by Shimadzu Seisakusho Ltd., SHIM-PACK CLC-ODS column, acetonitrile development, detection at 254 nm), it was confirmed that the purity of the product was 99.5%. In addition, the transmittance at 860 nm of the product in chloroform was 99% (product/chloroform=4 mg/100 ml).
The same procedure as in Example 1 or 3 was repeated to synthesize the compounds shown in Table 1, and yield, purity and transmittance at 860 nm of each product were then measured. The respective substituents A, B, C and D in the table correspond to those of formula (I).
*The transmittance was measured at 860 nm in chloroform.

| Structure (SMILES) | transmittance at 860 nm of the product in chloroform [%] |
| --- | --- |
| CCCCc1ccc(Nc2ccc(Nc3ccc(Cl)cc3)c3c2C(=O)c2c(Nc4ccc(CCCC)cc4)ccc(Nc4ccc(CCCC)cc4)c2C3=O)cc1 [Example 2, 1-(p-chloroanilido)-4,5,8-tris(p-n-butylanilido)anthraquinone] | 99.2 |
| Cc1ccc(Nc2ccc(Nc3ccc(C)cc3)c3c2C(=O)c2c(Nc4ccc(C)cc4)ccc(Nc4ccc(Cl)cc4)c2C3=O)cc1 [Example 1, 1-(p-chloroanilido)-4,5,8-tris(p-methylanilido)anthraquinone] | 99 |
| Cc1ccc(Nc2ccc(Nc3ccc(C)cc3)c3c2C(=O)c2c(Nc4ccc(Cl)cc4)ccc(Nc4ccc(Cl)cc4)c2C3=O)cc1 [Example 3, 1,4-bis(p-chloroanilido)-5,8-bis(p-methylanilido)anthraquinone] | 99.6 |
| Cc1ccc(Nc2ccc(Nc3ccc(C)cc3)c3c2C(=O)c2c(Nc4ccc(C)cc4)ccc(Nc4ccc(C)cc4)c2C3=O)cc1 [Comparative Example 1, 1,4,5,8-tetrakis(p-methylanilido)anthraquinone, reference compound] | 99 |

Same assay, conditions: measured at 860 nm in chloroform (Table 1)

| Structure (SMILES) | Transmittance* [%] |
| --- | --- |
| O=C1c2c(Nc3ccc(O)cc3)ccc(Nc3ccc(O)cc3)c2C(=O)c2c(Nc3ccc(Cl)cc3)ccc(Nc3ccc(Cl)cc3)c21 [Example 8] | 98.5 |
| Cc1ccc(Nc2ccc(Nc3ccc(C4CCCCC4)cc3)c3c2C(=O)c2c(Nc4ccc(Br)cc4)ccc(Nc4ccc(C5CCCCC5)cc4)c2C3=O)cc1 [Example 13] | 99.1 |
| O=C1c2c(Nc3ccc(Cl)cc3)ccc(Nc3ccc(Cl)cc3)c2C(=O)c2c(Nc3ccc(Cl)cc3)ccc(Nc3ccc(Cl)cc3)c21 [Example 6] | 100 |
| COc1ccc(Nc2ccc(Nc3ccc(Cl)cc3)c3c2C(=O)c2c(Nc4ccc(OC)cc4)ccc(Nc4ccc(OC)cc4)c2C3=O)cc1 [Example 5] | 98.9 |
| COc1ccc(Nc2ccc(Nc3ccc(OC)cc3)c3c2C(=O)c2c(Nc4ccc(OC)cc4)ccc(Nc4cccc(F)c4)c2C3=O)cc1 [Example 12] | 99.6 |
| O=C1c2c(Nc3ccccc3)ccc(Nc3ccccc3)c2C(=O)c2c(Nc3ccc(Cl)cc3)ccc(Nc3ccccc3)c21 [Example 4] | 98.8 |
| O=C1c2c(Nc3ccc(Cl)cc3)ccc(Nc3ccc(C4CCCCC4)cc3)c2C(=O)c2c(Nc3ccc(C4CCCCC4)cc3)ccc(Nc3ccc(C4CCCCC4)cc3)c21 [Example 7] | 99.2 |
| Cc1ccc(Nc2ccc(Nc3ccc(C)cc3)c3c2C(=O)c2c(Nc4ccc(C)cc4)ccc(Nc4ccc(F)cc4)c2C3=O)cc1 [Example 10] | 99.2 |
| Cc1ccc(Nc2ccc(Nc3ccc(Cl)cc3)c3c2C(=O)c2c(Nc4ccc(C5CCCCC5)cc4)ccc(Nc4ccc(C)cc4)c2C3=O)cc1 [Example 9] | 99.5 |
| Cc1ccc(Nc2ccc(Nc3ccc(C)cc3)c3c2C(=O)c2c(Nc4ccc(C)cc4)ccc(Nc4cccc(Br)c4)c2C3=O)cc1 [Example 11] | 98.2 |

Reference: US5342974A, “Halogenated anthraquinone and their use as near infrared rays absorbing optical filters” (Mitsui Toatsu Chemicals, Incorporated, priority 1987, dated 1994)
